Data published in ChEMBL document CHEMBL1201862, “PubChem BioAssay data set” (2004).
Each block holds one compound with its values, some of them ahead of it. The source made the active and inactive calls.

Tests used:
[1] = target: T1, Orexin/Hypocretin receptor type 1 (Homo sapiens, UniProt O43613); assay: (§1) Fluorescence-based cell-based high throughput dose response assay for antagonists of the orexin 1 receptor (OX1R; HCRTR1). [Related pubchem assays (depositor defined):AID434989, AID435008, AID463079, AID485270, AID492963, AID492964, AID492965, AID493232, AID504717, AID504718]; format: functional
T1 sequence (O43613 whole entry): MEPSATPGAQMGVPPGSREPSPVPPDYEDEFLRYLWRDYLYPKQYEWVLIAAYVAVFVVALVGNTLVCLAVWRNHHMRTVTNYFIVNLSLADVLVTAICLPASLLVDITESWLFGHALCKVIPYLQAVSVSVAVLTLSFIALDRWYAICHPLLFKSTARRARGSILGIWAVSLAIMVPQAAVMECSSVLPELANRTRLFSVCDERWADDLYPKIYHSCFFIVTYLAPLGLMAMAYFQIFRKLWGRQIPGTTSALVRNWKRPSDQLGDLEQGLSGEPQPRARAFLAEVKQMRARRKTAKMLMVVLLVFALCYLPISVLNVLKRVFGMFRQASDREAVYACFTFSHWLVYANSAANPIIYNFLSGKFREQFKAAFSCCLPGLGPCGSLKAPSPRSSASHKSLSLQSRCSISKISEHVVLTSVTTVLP

[2] = (§2) Counterscreen for antagonists of the orexin 1 receptor (OX1R; HCRTR1): Fluorescence-based cell-based high throughput dose response assay to identify antagonists of the parental CHO cell line. [Related pubchem assays (depositor defined):AID434989, AID435008, AID463079, AID485270, AID492963, AID492964, AID492965, AID493232, AID504699, AID504701]; format: functional
[3] = target: T1, Orexin/Hypocretin receptor type 1; assay: as §1, with “Homogeneous Time Resolved Fluorescence (HTRF)-based” for “Fluorescence-based”; format: functional
CHO-K1 = assay: as §2, with “Homogeneous time resolved fluorescence (HTRF)-based” for “Fluorescence-based”, “cell-based” for “cell-based high throughput”, “CHO-K1” for “CHO”; format: functional; details: Cricetulus griseus;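 note: potency for inhibition of ATP-stimulated IP1 production as antagonists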
[4] = target: T2, Kappa-type opioid receptor (Homo sapiens, UniProt P41145); format: functional
T2 sequence (P41145 whole entry): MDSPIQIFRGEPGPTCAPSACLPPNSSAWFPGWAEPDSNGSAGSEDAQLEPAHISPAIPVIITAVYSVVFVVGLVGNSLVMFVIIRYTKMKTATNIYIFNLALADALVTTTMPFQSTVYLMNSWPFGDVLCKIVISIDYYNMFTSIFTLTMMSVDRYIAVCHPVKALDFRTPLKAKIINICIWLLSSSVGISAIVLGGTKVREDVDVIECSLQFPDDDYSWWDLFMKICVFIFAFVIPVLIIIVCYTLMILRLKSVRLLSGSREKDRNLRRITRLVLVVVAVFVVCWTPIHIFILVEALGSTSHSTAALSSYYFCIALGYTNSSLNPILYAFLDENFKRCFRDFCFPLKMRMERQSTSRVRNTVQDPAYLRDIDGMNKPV

Beta-galactosidase [5] = target: T3, Beta-galactosidase (Escherichia coli, UniProt Q8VNN2); assay: PubChem AID 485352; format: functional
T3 sequence (Q8VNN2 whole entry): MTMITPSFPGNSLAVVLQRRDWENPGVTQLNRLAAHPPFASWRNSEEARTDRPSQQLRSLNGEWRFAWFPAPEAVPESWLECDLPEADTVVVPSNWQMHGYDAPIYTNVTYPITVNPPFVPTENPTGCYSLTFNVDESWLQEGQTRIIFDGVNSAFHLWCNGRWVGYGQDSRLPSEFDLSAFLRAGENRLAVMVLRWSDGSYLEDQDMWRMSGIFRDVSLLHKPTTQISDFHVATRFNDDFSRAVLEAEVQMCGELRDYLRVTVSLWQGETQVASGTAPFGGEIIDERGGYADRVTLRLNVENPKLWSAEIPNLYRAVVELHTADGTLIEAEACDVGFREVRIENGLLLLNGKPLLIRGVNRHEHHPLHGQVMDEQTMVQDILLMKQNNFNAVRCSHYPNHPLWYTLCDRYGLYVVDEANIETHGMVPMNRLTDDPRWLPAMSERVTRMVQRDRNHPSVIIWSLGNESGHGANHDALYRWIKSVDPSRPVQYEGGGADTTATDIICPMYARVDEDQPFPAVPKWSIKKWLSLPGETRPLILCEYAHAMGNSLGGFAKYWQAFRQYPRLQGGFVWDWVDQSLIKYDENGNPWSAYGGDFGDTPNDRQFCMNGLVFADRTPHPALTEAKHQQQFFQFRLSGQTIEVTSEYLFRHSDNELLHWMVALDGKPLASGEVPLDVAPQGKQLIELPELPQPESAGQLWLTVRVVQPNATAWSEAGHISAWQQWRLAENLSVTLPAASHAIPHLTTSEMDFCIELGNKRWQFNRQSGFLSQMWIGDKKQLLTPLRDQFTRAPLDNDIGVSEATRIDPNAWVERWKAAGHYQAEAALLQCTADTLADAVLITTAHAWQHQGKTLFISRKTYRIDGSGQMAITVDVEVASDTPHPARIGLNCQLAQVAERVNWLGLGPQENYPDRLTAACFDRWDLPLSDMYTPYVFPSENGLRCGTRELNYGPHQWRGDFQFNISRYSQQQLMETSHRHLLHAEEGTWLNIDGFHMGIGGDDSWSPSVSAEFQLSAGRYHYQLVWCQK

[6] = system: Streptococcus sp. 'group A'; assay: growth inhibition of control SK(-) GAS strain, dose response, counter-screen for streptokinase expression inhibitor project, luminescence, kanamycin, BacTiterGlo, confirmation (AID 1900); format: functional, organism-based
[7] = target: T2, Kappa-type opioid receptor; format: functional; remark: listed apart in the source
Streptococcus = assay: Group A Streptococcus viability loss, dose response, counter-screen for streptokinase expression inhibitor project, luminescence, BacTiterGlo (AID 1915); format: functional, organism-based;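 note: potency for reduction of bacterial viability or growth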
HEK293 [8] = assay: cells; format: functional, cell-based; details: Homo sapiens
[9] = target: T4, Delta-type opioid receptor (Homo sapiens, UniProt P41143); assay: HTS Image-Based Screen for Agonists of the DOR Receptor. [Related pubchem assays (depositor defined):AID1777, AID1786, AID2133]; format: functional
T4 sequence (P41143 whole entry): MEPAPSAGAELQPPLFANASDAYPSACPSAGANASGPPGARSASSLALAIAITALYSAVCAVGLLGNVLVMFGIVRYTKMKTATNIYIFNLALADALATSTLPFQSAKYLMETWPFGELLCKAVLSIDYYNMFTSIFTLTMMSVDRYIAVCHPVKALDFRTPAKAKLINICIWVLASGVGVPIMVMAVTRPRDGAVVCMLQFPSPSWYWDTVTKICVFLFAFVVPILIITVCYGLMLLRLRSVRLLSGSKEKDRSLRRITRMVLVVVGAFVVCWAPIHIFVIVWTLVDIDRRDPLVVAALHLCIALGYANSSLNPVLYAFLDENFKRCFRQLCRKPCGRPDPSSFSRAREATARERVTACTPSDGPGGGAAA

HEK293 [10] = assay: NOD1 signaling inhibitors, primary screen, cell-based, luminescence, uHTS (AID 1578); format: functional; details: Homo sapiens
HEK293 [11] = assay: cells; format: functional, cell-based; details: Homo sapiens; remark: listed apart in the source
HEK293 [12] = assay: NOD2 signaling inhibitors in MDP-stimulated cells, cell-based, uHTS, luminescence (AID 2001); format: functional; details: Homo sapiens
[13] = target: T4, Delta-type opioid receptor; assay: HTS Image-Based Screen for Antagonists of the DOR Receptor. [Related pubchem assays (depositor defined):AID1777, AID1785, AID1786, AID2133]; format: functional
Mu-type opioid receptor = Mu-type opioid receptor (Homo sapiens, UniProt P35372); assay: HTS Image-Based Screen for Agonists of the MOR Receptor. [Related pubchem assays (depositor defined):AID1777, AID1785, AID1786, AID2133]; format: functional;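 note: imaging of beta-arrestin GFP recruitment into spots after receptor activation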
Mu-type opioid receptor, sequence (P35372 whole entry): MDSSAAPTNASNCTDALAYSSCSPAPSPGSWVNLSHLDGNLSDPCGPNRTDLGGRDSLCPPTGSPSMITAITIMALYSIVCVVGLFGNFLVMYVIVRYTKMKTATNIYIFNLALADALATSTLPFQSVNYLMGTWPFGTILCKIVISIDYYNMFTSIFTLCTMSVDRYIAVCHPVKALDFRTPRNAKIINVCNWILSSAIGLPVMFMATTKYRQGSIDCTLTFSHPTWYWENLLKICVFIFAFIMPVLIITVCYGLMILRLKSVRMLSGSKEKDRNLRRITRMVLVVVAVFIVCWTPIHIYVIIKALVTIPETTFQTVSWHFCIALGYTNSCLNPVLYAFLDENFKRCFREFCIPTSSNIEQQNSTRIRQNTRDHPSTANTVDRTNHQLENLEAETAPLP

Beta-galactosidase [14] = target: T3, Beta-galactosidase; format: functional
[15] = target: T5, Type-1 angiotensin II receptor (Homo sapiens, UniProt P30556); assay: AT1 receptor antagonists, dose response, selectivity assay for APJ receptor antagonist project, cell-based, uHTS hits (AID 463214); format: functional;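 note: antagonist potency against angiotensin II stimulated AT1 response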
T5 sequence (P30556 whole entry): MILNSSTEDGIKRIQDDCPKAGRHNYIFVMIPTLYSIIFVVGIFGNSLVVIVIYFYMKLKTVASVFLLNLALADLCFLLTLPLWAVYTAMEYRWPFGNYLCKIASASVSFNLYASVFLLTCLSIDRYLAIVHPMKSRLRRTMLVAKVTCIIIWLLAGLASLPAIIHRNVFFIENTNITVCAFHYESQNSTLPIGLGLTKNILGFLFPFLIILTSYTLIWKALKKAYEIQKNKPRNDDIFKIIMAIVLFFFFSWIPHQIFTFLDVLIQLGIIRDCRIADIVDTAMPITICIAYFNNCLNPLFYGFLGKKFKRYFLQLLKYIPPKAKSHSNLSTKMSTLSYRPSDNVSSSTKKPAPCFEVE

[16] = target: G-protein coupled receptor 55 (Homo sapiens, UniProt Q9Y2T6); assay: GPR55 antagonists, SAR follow-up, counter-screen for GPR35 antagonist project, imaging, image-based (AID 2397); format: functional
G-protein coupled receptor 55, sequence (Q9Y2T6 whole entry): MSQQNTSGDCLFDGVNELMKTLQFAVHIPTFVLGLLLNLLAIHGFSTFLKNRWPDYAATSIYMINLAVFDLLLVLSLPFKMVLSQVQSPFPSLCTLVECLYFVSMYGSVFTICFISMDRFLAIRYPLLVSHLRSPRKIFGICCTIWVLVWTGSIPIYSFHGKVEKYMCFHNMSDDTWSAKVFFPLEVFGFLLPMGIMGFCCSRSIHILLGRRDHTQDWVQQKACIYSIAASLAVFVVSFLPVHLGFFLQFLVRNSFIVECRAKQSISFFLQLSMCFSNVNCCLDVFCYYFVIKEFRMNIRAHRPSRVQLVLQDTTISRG

SMILES: Oc1cc(/C=C/c2c(F)cccc2Cl)nc2ccccc12
IC50 [1]: 9.6 µM (active) | IC50 [2]: > 49.7 µM (inactive) | IC50 [3]: 3.14 µM (active) | IC50 (CHO-K1): > 66.2 µM (inactive)

SMILES: COc1cccc(/C=C/c2ccc3cccc(O)c3n2)c1OC
IC50 [4]: > 31.5 µM (inactive) | EC50 (Beta-galactosidase [5]): > 40 µM (inactive) | EC50 [6]: 1.68 µM (active) | IC50 [7]: > 32 µM | EC50 (Streptococcus): 7.81 µM (active) | IC50 (HEK293 [8]): > 20 µM (inactive) | EC50 [9]: > 32 µM (inactive) | EC50 (HEK293 [10]): > 20 µM (inactive) | IC50 (HEK293 [11]): 10.6 µM (active) | IC50 (HEK293 [12]): 5.45 µM (inactive) | IC50 [13]: > 32 µM (inactive) | EC50 (Mu-type opioid receptor): > 32 µM (inactive) | EC50 (Beta-galactosidase [14]): > 31.5 µM (inactive) | IC50 [15]: 15.6 µM (active)

IC50 [4]: 8.15 µM (active) | IC50 [7]: 8.71 µM | EC50 [9]: > 32 µM (inactive) | IC50 [13]: > 32 µM (inactive) | EC50 (Mu-type opioid receptor): > 32 µM (inactive) | EC50 (Beta-galactosidase [14]): > 31.5 µM (inactive)
SMILES: CC(=O)Nc1ccc(NC(=O)C(C)OC(=O)c2ccccc2C(=O)c2ccc(Cl)c([N+](=O)[O-])c2)cc1 (stereo not given)

IC50 [16]: > 32 µM (inactive)
SMILES: Cc1ccc(C)c(OCCC(=O)NCCc2ccc(S(N)(=O)=O)cc2)c1
